Inhibition data for 21 compounds are collected here from US20230011571A1, “SMALL MOLECULE FURIN INHIBITORS FOR TREATING INFECTIOUS DISEASES” (BP Asset V, Inc., priority 2019, published 2023).

Each structure is given as a SMILES string.

Holding throughout (type): cell-based
For one assay, the system named is Marburg virus (MARV). Kind of assay: organism not typed. The conditions noted are these: Vero, 72 h, read-out: Percent viral inhibition MARV.
The subject of a further assay is dengue virus (DENV). Kind of assay: microbe, parasite or virus in culture. The conditions noted are these: Dengue virus, Vero, 120 h, read-out: Percent viral inhibition DENY.
In assay [1] the test system is Chikungunya virus (CHIKV). Kind of assay: microbe, parasite or virus in culture. The conditions noted are these: Chikungunya virus, Vero, 48 h, read-out: Percent viral inhibition CHKV.

Take `CC(=O)NCC1CCN(Cc2cc(Oc3ccc(N4C[C@H]5CC[C@@H](C4)N5CCC(=O)O)nc3)nc(-c3cc(Cl)cc(Cl)c3)c2)CC1` [Example 185, 3-((1R,5S)-3-(5-((4-((4-(acetamidomethyl)piperidin-1-yl)methyl)-6-(3,5-dichlorophenyl)pyridin-2-yl)oxy)pyridin-2-yl)-3,8-diazabicyclo[3.2.1]octan-8-yl) propanoic acid]: the values for the inhibition at 1 µM (in the assay with Marburg virus (MARV); in the assay on dengue virus (DENV); in assay [1]) were 64.2%, 0% and 22.9%, respectively.

In the case of `CC(=O)NCC1CCN(Cc2cc(Oc3cnc(N4CCN(CCC(N)=O)CC4)nc3)nc(-c3cc(Cl)cc(Cl)c3)c2)CC1` [Example 88, 3-(4-(5-((4-((4-(acetamidomethyl)piperidin-1-yl)methyl)-6-(3,5-dichlorophenyl)pyridin-2-yl)oxy)pyrimidin-2-yl)piperazin-1-yl)propanamide], the inhibition at 1 µM came to 58.6% in the assay on Marburg virus (MARV), 54.6% in the assay with dengue virus (DENV) and 10.9% in assay [1].

For the compound `CNC(=O)NCC1CCN(Cc2cc(Oc3cnc(N4CCN(CCCS(C)(=O)=O)CC4)nc3)nc(-c3cc(Cl)cc(Cl)c3)c2)CC1` [Example 257, 1-((1-((2-(3,5-dichlorophenyl)-6-((2-(4-(3-(methylsulfonyl)propyl)piperazin-1-yl)pyrimidin-5-yl)oxy)pyridin-4-yl)methyl)piperidin-4-yl)methyl)-3-methylurea], the inhibition at 1 µM was found to be 26.5% in the assay on Marburg virus (MARV), 46.5% with dengue virus (DENV) and 10.3% in assay [1].

In the case of `CCNC(=O)CC1CCN(Cc2cc(Oc3ccc(N4CCN(CCCS(C)(=O)=O)CC4)nc3)nc(-c3cc(Cl)cc(Cl)c3)c2)CC1` [Example 36, 2-(1-((2-(3,5-dichlorophenyl)-6-((6-(4-(3-(methylsulfonyl)propyl)piperazin-1-yl)pyridin-3-yl)oxy)pyridin-4-yl)methyl)piperidin-4-yl)-N-ethylacetamide], the inhibition at 1 µM was found to be 52.5% in the assay on Marburg virus (MARV), 38% in the assay on dengue virus (DENV) and 5.78% in assay [1].

In the case of `CC(=O)NCC1CCN(Cc2cc(Oc3cnc(N4CCN(CCC(N)=O)CC4)nc3)nc(-c3cc(F)c(F)c(Cl)c3)c2)CC1` [Example 273], the inhibition at 1 µM in the assay with Marburg virus (MARV) is 58.5%; in the assay with dengue virus (DENV) it was 25.4%; in assay [1], 23.4%.

With `CC(=O)NCC1CCN(Cc2cc(Oc3cnc(N4CCN(CCC(=O)O)CC4)nc3)nc(-c3cc(Cl)cc(Cl)c3)c2)CC1` [Example 263, 3-(4-(5-((4-((4-(acetamidomethyl)piperidin-1-yl)methyl)-6-(3,5-dichlorophenyl)pyridin-2-yl)oxy)pyrimidin-2-yl)piperazin-1-yl)propanoic acid], the inhibition at 1 µM was found to be 48.5% in the assay with Marburg virus (MARV), 39.7% in the assay with dengue virus (DENV) and 28.9% in assay [1].

Regarding `CN1CCN(c2ncc(Oc3cc(CN4CCC(CNC(=O)NS(C)(=O)=O)CC4)cc(-c4cc(Cl)cc(Cl)c4)n3)cn2)CC1` [Example 326, N-(((1-((2-(3,5-dichlorophenyl)-6-((2-(4-methylpiperazin-1-yl)pyrimidin-5-yl)oxy)pyridin-4-yl)methyl)piperidin-4-yl)methyl)carbamoyl)methane-sulfonamide], the results for the inhibition at 1 µM (in the assay on Marburg virus (MARV); with dengue virus (DENV); in assay [1]) were 63.9%, 45.5% and 22.7%, respectively.

In the case of `CN1CCN(c2ncc(Oc3cc(CN4CCC(CC(=O)O)CC4)cc(-c4cc(Cl)cc(Cl)c4)n3)cn2)CC(F)C1` (stereo not drawn) [Example 147, 2-(1-((2-(3,5-dichlorophenyl)-6-((2-(6-fluoro-4-methyl-1,4-diazepan-1-yl)pyrimidin-5-yl)oxy)pyridin-4-yl)methyl)piperidin-4-yl)acetic acid], the inhibition at 1 µM stood at 44.2% in the assay with Marburg virus (MARV), 42.8% in the assay on dengue virus (DENV) and 31.7% in assay [1].

With `COC(=O)NCC1CCN(Cc2cc(Oc3cnc(N4CCN(CCC(=O)O)CC4)nc3)nc(-c3cc(Cl)cc(Cl)c3)c2)CC1` [Example 62, 3-(4-(5-((6-(3,5-dichlorophenyl)-4-((4-(((methoxycarbonyl)amino)methyl)piperidin-1-yl)methyl)pyridin-2-yl)oxy)pyrimidin-2-yl)piperazin-1-yl)propanoic acid], the inhibition at 1 µM amounted to 19.9% in the assay with Marburg virus (MARV), 19.1% in the assay on dengue virus (DENV) and 35.2% in assay [1].

In the case of `CC(CCN1CCN(c2ncc(Oc3cc(CN4CCC(CC(=O)O)CC4)cc(-c4cc(Cl)cc(Cl)c4)n3)cn2)CC1)S(C)(=O)=O` (stereo not drawn) [Example 205, 2-(1-((2-(3,5-dichlorophenyl)-6-((2-(4-(3-(methylsulfonyl)butyl)piperazin-1-yl)pyrimidin-5-yl)oxy)pyridin-4-yl)methyl)piperidin-4-yl)acetic acid], the figures for the inhibition at 1 µM (in the assay with Marburg virus (MARV); in the assay with dengue virus (DENV); in assay [1]) were 77.6%, 57.6% and 23.7%, respectively.

Regarding `CS(=O)(=O)CCCN1CCN(c2ncc(Oc3cc(CN4CCC(CC(=O)O)CC4)cc(-c4cc(Cl)cc(Cl)c4)n3)cn2)CC1` [Example 242, 2-(1-((2-(3,5-dichlorophenyl)-6-((2-(4-(3-(methylsulfonyl)propyl)piperazin-1-yl)pyrimidin-5-yl)oxy)pyridin-4-yl)methyl)piperidin-4-yl)acetic acid], the inhibition at 1 µM in the assay on Marburg virus (MARV) was 55.5%; in the assay on dengue virus (DENV), 16.4%; in assay [1] it was 31.9%.

For `CNC(=O)NCC1CCN(Cc2cc(Oc3cnc(N4CCN(C)CC4)nc3)nc(-c3cc(Cl)cc(Cl)c3)c2)CC1` [Example 70, 1-((1-((2-(3,5-dichlorophenyl)-6-((2-(4-methylpiperazin-1-yl)pyrimidin-5-yl)oxy)pyridin-4-yl)methyl)piperidin-4-yl)methyl)-3-methylurea], the inhibition at 1 µM in the assay on Marburg virus (MARV) stood at 5.52%; in the assay on dengue virus (DENV), 0%; in assay [1], 0%.

As for `O=C(O)CC1CCN(Cc2cc(Oc3cnc(N4CC5CNCC5C4)nc3)nc(-c3cc(Cl)cc(Cl)c3)c2)CC1` (stereo not drawn) [Example 161, 2-(1-((2-(3,5-dichlorophenyl)-6-((2-(hexahydropyrrolo[3,4-c]pyrrol-2(1H)-yl)pyrimidin-5-yl)oxy)pyridin-4-yl)methyl)piperidin-4-yl)acetic acid], the inhibition at 1 µM in the assay with Marburg virus (MARV) was determined as 44.9%; in the assay on dengue virus (DENV), 33%; in assay [1], 28.5%.

Regarding `CC(=O)NCC1CCN(Cc2cc(Oc3cnc(N4CCN(CCC(=O)O)CC4)c(F)c3)nc(-c3cc(Cl)cc(Cl)c3)c2)CC1` [Example 266], the inhibition at 1 µM is 56.3% in the assay with Marburg virus (MARV), 48.7% in the assay on dengue virus (DENV) and 22.6% in assay [1].

`C[C@@H](O)CN1CCN(c2ncc(Oc3cc(CN4CCC(CC(=O)O)CC4)cc(-c4cc(Cl)cc(Cl)c4)n3)cn2)CC1` [Example 298, (R)-2-(1-((2-(3,5-dichlorophenyl)-6-((2-(4-(2-hydroxypropyl)piperazin-1-yl)pyrimidin-5-yl)oxy)pyridin-4-yl)methyl)piperidin-4-yl)acetic acid]: the inhibition at 1 µM with Marburg virus (MARV) was found to be 55.1%; in the assay with dengue virus (DENV) it was 57%; in assay [1], 20.7%.

As to `CN1CC2CN(c3ncc(Oc4cc(CN5CCC(CC(=O)O)CC5)cc(-c5cc(Cl)cc(Cl)c5)n4)cn3)CC2C1` (stereo not drawn) [Example 133, 2-(1-((2-(3,5-dichlorophenyl)-6-((2-(5-methylhexahydropyrrolo[3,4-c]pyrrol-2(1H)-yl)pyrimidin-5-yl)oxy)pyridin-4-yl)methyl)piperidin-4-yl)acetic acid], the inhibition at 1 µM in the assay with Marburg virus (MARV) is 54%; in the assay on dengue virus (DENV), 47.8%; in assay [1], 43.4%.

In the case of `COC(=O)NCC1CCN(Cc2cc(Oc3cnc(N4CCN(CCO)CC4)nc3)nc(-c3cc(Cl)cc(Cl)c3)c2)CC1` [Example 311, methyl((1-((2-(3,5-dichlorophenyl)-6-((2-(4-(2-hydroxyethyl)piperazin-1-yl)pyrimidin-5-yl)oxy)pyridin-4-yl)methyl)piperidin-4-yl)methyl)carbamate], the inhibition at 1 µM in the assay with Marburg virus (MARV) was found to be 17.5%; in the assay on dengue virus (DENV) it was 0%; in assay [1], 8.41%.

Consider `CN1CCN(c2ncc(Oc3cc(CN4CCC(CC(=O)O)CC4)cc(-c4cc(Cl)cc(Cl)c4)n3)cn2)CC1` [Example 207, 2-(1-((2-(3,5-dichlorophenyl)-6-((2-(4-methylpiperazin-1-yl)pyrimidin-5-yl)oxy)pyridin-4-yl)methyl)piperidin-4-yl)acetic acid], for which the inhibition at 1 µM was found to be 42.2% in the assay with Marburg virus (MARV), 47.9% in the assay on dengue virus (DENV) and 26.3% in assay [1].

Take `CN1C2CC1CN(c1cnc(Oc3cc(CN4CCC(CC(=O)O)CC4)cc(-c4cc(Cl)cc(Cl)c4)n3)cn1)C2` [Example 352, 2-(1-((2-(3,5-dichlorophenyl)-6-((5-(6-methyl-3,6-diazabicyclo[3.1.l]heptan-3-yl)pyrazin-2-yl)oxy)pyridin-4-yl)methyl)piperidin-4-yl)acetic acid]: the inhibition at 1 µM with Marburg virus (MARV) is 47.9%; in the assay on dengue virus (DENV), 13.1%; in assay [1], 31%.

For `NS(=O)(=O)CCCN1CCN(c2ccc(Oc3cc(CN4CCC(CC(=O)O)CC4)cc(-c4cc(Cl)cc(Cl)c4)n3)cn2)CC1` [Example 252, 2-(1-((2-(3,5-dichlorophenyl)-6-((6-(4-(3-sulfamoylpropyl)piperazin-1-yl)pyridin-3-yl)oxy)pyridin-4-yl)methyl)piperidin-4-yl)acetic acid], the inhibition at 1 µM in the assay on Marburg virus (MARV) is 53.5%; in the assay with dengue virus (DENV) it was 23.3%; in assay [1], 33.2%.

Consider `CC(=O)NCC1CCN(Cc2cc(Oc3cnc(N4CCN(C5CC(C(=O)O)C5)CC4)nc3)nc(-c3cc(Cl)cc(Cl)c3)c2)CC1` (stereo not drawn) [Example 216], for which the inhibition at 1 µM with Marburg virus (MARV) was found to be 38.5%; in the assay with dengue virus (DENV), 8.34%; in assay [1], 21.4%.

As a reminder, the inhibition is the change of the read-out against control, counted positive when it falls.
